# Experimental data from PubChem BioAssay AID248 (DTP/NCI, 2004).
# “And” between values parts separate entries of the source, which are not always exact repeats. Identical values can stand only once. Inconclusive results and toxic doses are left out.
# Tested on: L1210 leukemia ip in BDF1 mice, survival T/C
# Test: NCI In Vivo Anticancer Drug Screen. Data for tumor model L1210 Leukemia (intraperitoneal) in B6D2F1 (BDF1) mice
# Conditions: endpoint: mean survival time, higher = longer survival
# Description: The antitumor activity of compounds was measured in mice bearing transplantable tumors. Survival or tumor size were measured and the results are expressed as the measurement made in the treated group (T) divided by the measurement made in the vehicle treated control group (C). The tumor model used in this assay is L1210 Leukemia (intraperitoneal) in B6D2F1 (BDF1) mice
# [1] = dose: 100.0 mg/kg/injection, schedule: Q01DX009 (ip), vehicle: saline with Tween-80
# [2] = dose: 25.0 mg/kg/injection, schedule: Q01DX009 (ip), vehicle: saline
# [3] = dose: 50.0 mg/kg/injection, schedule: Q01DX009 (ip), vehicle: saline
# [4] = dose: 100.0 mg/kg/injection, schedule: Q01DX009 (ip), vehicle: saline
# [5] = dose: 100.0 mg/kg/injection, schedule: Q04DX003 (ip), vehicle: saline with Tween-80
# [6] = dose: 200.0 mg/kg/injection, schedule: Q01DX009 (ip), vehicle: saline
# [7] = dose: 200.0 mg/kg/injection, schedule: Q04DX003 (ip), vehicle: saline with Tween-80
smiles,measurement,setting,value
CCOC(=O)/C(O)=C\c1cc(Br)c(OC)cc1[N+](=O)[O-],T/C,"dose: 100.0 mg/kg/injection, schedule: Q01DX001 (ip), vehicle: saline",102 % of control
same,T/C,"dose: 100.0 mg/kg/injection, schedule: Q04DX003 (ip), vehicle: saline",98 % of control
same,T/C,"dose: 200.0 mg/kg/injection, schedule: Q01DX001 (ip), vehicle: saline",107 % of control
same,T/C,"dose: 200.0 mg/kg/injection, schedule: Q04DX003 (ip), vehicle: saline",98 % of control
same,T/C,"dose: 400.0 mg/kg/injection, schedule: Q01DX001 (ip), vehicle: saline",95 % of control
same,T/C,"dose: 400.0 mg/kg/injection, schedule: Q04DX003 (ip), vehicle: saline",95 % of control
O=C(O)c1cc(Cl)c(O)c(Cl)c1,T/C,[1],107 % of control
same,T/C,"dose: 200.0 mg/kg/injection, schedule: Q01DX009 (ip), vehicle: saline with Tween-80",91 % of control
same,T/C,"dose: 400.0 mg/kg/injection, schedule: Q01DX009 (ip), vehicle: saline with Tween-80",101 % of control
COc1ccc(C(=O)/C=C\c2ccc(Cl)c(Cl)c2)cc1,T/C,"dose: 100.0 mg/kg/injection, schedule: Q04DX002 (ip), vehicle: Klucel (hydroxypropylcellulose) (HPC)",100 % of control
same,T/C,"dose: 200.0 mg/kg/injection, schedule: Q04DX002 (ip), vehicle: Klucel (hydroxypropylcellulose) (HPC)",97 % of control
same,T/C,"dose: 400.0 mg/kg/injection, schedule: Q04DX002 (ip), vehicle: Klucel (hydroxypropylcellulose) (HPC)",107 % of control
COc1cccc2c1CCC1C2CCC2(O)CC(=O)CCC12C (stereo not given),T/C,"dose: 100.0 mg/kg/injection, schedule: Q04DX003 (sc), vehicle: steriod suspending solution",115 % of control
same,T/C,"dose: 200.0 mg/kg/injection, schedule: Q04DX003 (sc), vehicle: steriod suspending solution",113 % of control
same,T/C,"dose: 400.0 mg/kg/injection, schedule: Q04DX003 (sc), vehicle: steriod suspending solution",113 % of control
O=C(O)c1cc2ccccc2o1,T/C,"dose: 50.0 mg/kg/injection, schedule: Q01DX009 (ip), vehicle: saline with Tween-80",90 % of control
same,T/C,[1],97 % of control
Nc1nc(N)c2nc(CNc3ccc(C(=O)NC(CC(=O)O)C(=O)O)cc3)cnc2n1 (stereo not given),T/C,"dose: 1.56 mg/kg/injection, schedule: Q01DX Z (ip), vehicle: saline",114 % of control
same,T/C,"dose: 3.12 mg/kg/injection, schedule: Q01DX009 (ip), vehicle: saline",110 % of control
same,T/C,"dose: 3.13 mg/kg/injection, schedule: Q01DX Z (ip), vehicle: saline",108 % of control
same,T/C,[2],151 % of control
same,T/C,"dose: 25.0 mg/kg/injection, schedule: Q01DX Z (ip), vehicle: saline",172 % of control
same,T/C,[3],166 % of control
same,T/C,"dose: 50.0 mg/kg/injection, schedule: Q01DX Z (ip), vehicle: saline",118 % of control
same,T/C,[4],95 % of control
same,T/C,"dose: 100.0 mg/kg/injection, schedule: Q01DX Z (ip), vehicle: saline",114 % of control and 88 % of control
same,T/C,"dose: 200.0 mg/kg/injection, schedule: Q01DX Z (ip), vehicle: saline",95 % of control
O=C(/C=C/c1ccc2c(c1)OCO2)c1ccc2c(c1)OCO2,T/C,"dose: 100.0 mg/kg/injection, schedule: Q01DX009 (ip), vehicle: Klucel (hydroxypropylcellulose) (HPC)",106 % of control
same,T/C,"dose: 100.0 mg/kg/injection, schedule: Q04DX003 (ip), vehicle: Klucel (hydroxypropylcellulose) (HPC)",98 % of control
same,T/C,"dose: 200.0 mg/kg/injection, schedule: Q01DX009 (ip), vehicle: Klucel (hydroxypropylcellulose) (HPC)",100 % of control
same,T/C,"dose: 200.0 mg/kg/injection, schedule: Q04DX003 (ip), vehicle: Klucel (hydroxypropylcellulose) (HPC)",104 % of control
same,T/C,"dose: 400.0 mg/kg/injection, schedule: Q01DX009 (ip), vehicle: Klucel (hydroxypropylcellulose) (HPC)",100 % of control
same,T/C,"dose: 400.0 mg/kg/injection, schedule: Q04DX003 (ip), vehicle: Klucel (hydroxypropylcellulose) (HPC)",101 % of control
O=C1OC(=C(c2ccccc2)c2ccccc2)c2ccccc21,T/C,[4],100 % of control
same,T/C,[5],96 % of control
same,T/C,[6],100 % of control
same,T/C,[7],96 % of control
same,T/C,"dose: 400.0 mg/kg/injection, schedule: Q04DX003 (ip), vehicle: saline with Tween-80",90 % of control
CC1CC(C)(C)N=C(CCC2CCCCCC2=O)O1 (stereo not given),T/C,[2],98 % of control
same,T/C,[3],102 % of control
same,T/C,"dose: 50.0 mg/kg/injection, schedule: Q04DX003 (ip), vehicle: saline with Tween-80",96 % of control
same,T/C,[4],100 % of control
same,T/C,[5],93 % of control
same,T/C,[6],101 % of control
same,T/C,[7],96 % of control
Nc1nc2ncc(CNc3ccc(C(=O)NC(CCC(=O)O)C(=O)O)cc3)nc2c(=O)n1N (stereo not given),T/C,"dose: 100.0 mg/kg/injection, schedule: Q01DX001 (ip), vehicle: Klucel (hydroxypropylcellulose) (HPC)",98 % of control
same,T/C,"dose: 200.0 mg/kg/injection, schedule: Q01DX001 (ip), vehicle: Klucel (hydroxypropylcellulose) (HPC)",101 % of control
same,T/C,"dose: 400.0 mg/kg/injection, schedule: Q01DX001 (ip), vehicle: Klucel (hydroxypropylcellulose) (HPC)",98 % of control
C=CCNC(=O)/C=C/C(=O)O,T/C,[4],95 % of control
same,T/C,[6],93 % of control
